This is an account of results in patent US4464385A, “Treatment of diabetic complications with hydantoins” (Alcon Laboratories, Inc., priority 1982, dated 1984).

This series has as its system membrane bound cytochrome containing oxidoreductase enzymes. The series is described as follows: In vivo conversion of the methylthio group to methylsulfinyl. As to conditions: enzymes common to liver, kidney and lung.

In the case of “dl-spiro-(6-methylthio-chroman-4,4'-imidazolidine)-2',5'-dione”, the “conversion of methylthio group to methylsulfinyl derivative” value was “converted to the methylsulfinyl derivative”.
